# Experimental data as given in paper PMC6152224 (Molecules : A Journal of Synthetic Chemistry and Natural …, 2017).
# Structures can show the parent of a compound that is named as a salt. Where two headings read alike, the source gives them in different places.
# Experiments:
# ACHN cell line = experiment: cells; assay type: cell-based, human; details: read-out: IC50 ± SEM ACHN
# SH-SY5Y cell line = experiment: cells; assay type: cell-based, human; details: read-out: IC50 ± SEM SH-SY5Y
# [1] = Experimentally determined physicochemical values with Sirius T3 device
# HepG2 cell line = experiment: cells; assay type: cell-based, human; details: read-out: IC50 ± SEM HepG2
# hAChE = target: T1, hAChE (Homo sapiens, UniProt P22303); experiment: Kinetic study of AChE inhibition (Lineweaver-Burk, nonlinear regression); assay type: biochemical
# T1 construct: purchased Sigma-Aldrich (Prague, Czech Republic)
# in vitro = details: PAMPA, pH 7.4
# [2] = target: T2, human plasmatic BChE (hBChE) (Homo sapiens, UniProt P06276); experiment: In vitro anti-cholinesterase assay (modified Ellman's method), hBChE; assay type: biochemical; details: mean of at least three experiments; read-out: IC50 ± SEM hBChE
# T2 construct: human plasmatic BChE (hBChE, E.C. 3.1.1.8, purchased from Sigma-Aldrich); purchased Sigma-Aldrich (Prague, Czech Republic); host or cells: human plasma
# [3] = PAMPA; taken from ref 52, 53; cited from earlier work
# hBChE = details: literature value; cited from earlier work
# [4] = PAMPA, pH 7.4
# AChE = test system: AChE; design: method as in PMID 23480140; details: versus THA and (−)-huperzine A; cited from earlier work
# [5] = test system: 3-nitropropionic acid (3-NP) intoxication; details: 3-NP-induced assay, HupY pretreatment; cited from earlier work
# [6] = test system: HepG2, ACHN and SH-SY5Y cell lines; experiment: cells; details: Homo sapiens, 24 h, read-out: IC50 values for all the tested cell lines
# [7] = MTT, cytotoxic profile assessed after 24 h
# T1 sequence (P22303 32-614): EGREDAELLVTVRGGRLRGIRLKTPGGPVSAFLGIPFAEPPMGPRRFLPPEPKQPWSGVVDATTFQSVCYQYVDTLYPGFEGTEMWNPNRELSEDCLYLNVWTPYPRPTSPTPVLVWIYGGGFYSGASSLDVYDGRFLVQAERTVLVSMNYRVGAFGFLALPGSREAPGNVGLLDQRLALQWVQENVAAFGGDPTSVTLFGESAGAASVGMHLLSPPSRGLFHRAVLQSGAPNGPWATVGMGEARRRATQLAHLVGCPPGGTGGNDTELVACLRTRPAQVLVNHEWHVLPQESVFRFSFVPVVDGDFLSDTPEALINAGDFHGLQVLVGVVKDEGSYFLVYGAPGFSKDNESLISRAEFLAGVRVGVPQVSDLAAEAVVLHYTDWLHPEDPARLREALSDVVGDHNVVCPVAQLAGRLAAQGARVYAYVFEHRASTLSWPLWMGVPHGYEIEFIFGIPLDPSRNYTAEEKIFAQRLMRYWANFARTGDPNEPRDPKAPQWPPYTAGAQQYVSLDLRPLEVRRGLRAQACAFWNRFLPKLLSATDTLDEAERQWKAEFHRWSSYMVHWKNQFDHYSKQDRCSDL
# T2 sequence (P06276 29-602): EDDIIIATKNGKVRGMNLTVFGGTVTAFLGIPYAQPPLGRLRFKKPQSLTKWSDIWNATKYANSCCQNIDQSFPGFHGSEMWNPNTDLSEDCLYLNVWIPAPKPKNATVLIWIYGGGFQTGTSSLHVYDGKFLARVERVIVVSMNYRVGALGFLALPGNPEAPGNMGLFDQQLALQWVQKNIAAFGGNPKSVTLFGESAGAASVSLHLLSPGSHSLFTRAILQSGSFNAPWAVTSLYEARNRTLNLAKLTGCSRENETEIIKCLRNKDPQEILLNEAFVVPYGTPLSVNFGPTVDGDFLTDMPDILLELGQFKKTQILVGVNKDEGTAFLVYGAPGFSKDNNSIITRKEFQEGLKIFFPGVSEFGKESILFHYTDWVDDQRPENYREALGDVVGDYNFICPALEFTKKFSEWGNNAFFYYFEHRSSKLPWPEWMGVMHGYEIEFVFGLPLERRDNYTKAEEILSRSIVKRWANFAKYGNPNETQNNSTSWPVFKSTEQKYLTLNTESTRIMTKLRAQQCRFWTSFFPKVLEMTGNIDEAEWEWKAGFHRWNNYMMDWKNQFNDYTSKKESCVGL
smiles,measurement,setting,value
"COc1ccc2nc3c(c(N)c2c1)C1CC(C)=CC(C3)C1 (racemic) [(±)-1·HCl, rac-6-Methoxy-15-methyl-10-azatetracyclo[11.3.1.0^2,11.0^4,9]heptadeca-2(11),3,5,7,9,14-hexaen-3-amine hydrochloride]",IC50,"ACHN cell line; Homo sapiens, ACHN, 24 h",32.2 ± 0.72 µM
same,IC50,"SH-SY5Y cell line; Homo sapiens, SH-SY5Y, 24 h",17.84 ± 0.09 µM
same,logD,"[1]; pH 7.4, read-out: logD7.4 (experimental)",1.73
same,logP,[1]; read-out: logP (experimental),3.58
same,pKa,[1]; read-out: pKa (experimental),9.54
same,IC50,"HepG2 cell line; Homo sapiens, HepG2, 24 h",14.91 ± 0.11 µM
same,Ki',"hAChE; enzyme-substrate complex, inhibitor 1.00, 10.0 and 100 µM",3.67 ± 0.42 µM
same,type of inhibition,"hAChE; nonlinear regression, sum-of-squares F-test, p < 0.05",mixed type of inhibition
same,Papp at 100 µM,in vitro,7.64 ± 0.22 ×10⁻⁶ cm/s
"CC1=CC2Cc3nc4cc(Cl)ccc4c(N)c3C(C1)C2 (racemic) [(±)-HupY·HCl, rac-7-Chloro-15-methyl-10-azatetracyclo[11.3.1.0^2,11.0^4,9]heptadeca-2(11),3,5,7,9,14-hexaen-3-amine hydrochloride]",IC50,"ACHN cell line; Homo sapiens, ACHN, 24 h",24.6 ± 0.32 µM
same,IC50,"SH-SY5Y cell line; Homo sapiens, SH-SY5Y, 24 h",17.5 ± 0.44 µM
same,IC50,[2],0.358 ± 0.025 µM
same,IC50,"HepG2 cell line; Homo sapiens, HepG2, 24 h",15.9 ± 1.17 µM
same,Papp,in vitro,5.89 ± 0.36 ×10⁻⁶ cm/s
Nc1c2c(nc3cc(Cl)ccc13)CCCC2 [6-chlorotacrine],IC50,ACHN cell line; [7],55.1 ± 1.76 µM
same,Pe ± SEM,[3],5.00 ± 0.45 ^c 10^−6 cm·s^−1
same,IC50,SH-SY5Y cell line; [7],50.4 ± 1.28 µM
same,IC50,HepG2 cell line,43.2 ± 1.17 µM
CC1=C[C@H]2Cc3nc4cc(Cl)ccc4c(N)c3[C@@H](C1)C2 [(+)-HupY],IC50,hBChE,0.153 µM
CC1=C[C@@H]2Cc3nc4cc(Cl)ccc4c(N)c3[C@H](C1)C2 [(−)-HupY],IC50,hBChE,0.247 µM
"CO/N=C(\C(=O)N[C@@H]1C(=O)N2C(C(=O)O)=C(COC(N)=O)CS[C@H]12)c1ccco1 [Cefuroxim, cefuroxime]",Pe ± SEM,[4],2.70 ± 0.1 10^−6 cm·s^−1
"COc1ccc2nc3c(c(N)c2c1)CCCC3 [Compound 7-MEOTA, 7-methoxytacrine]",IC50,"ACHN cell line; Homo sapiens, ACHN, 24 h",49.3 ± 2.69 µM
same,IC50,"SH-SY5Y cell line; Homo sapiens, SH-SY5Y, 24 h",26.8 ± 1.04 µM
same,IC50,"HepG2 cell line; Homo sapiens, HepG2, 24 h",44.4 ± 3.35 µM
same,Papp,in vitro,6.5 ± 1.85 ×10⁻⁶ cm/s
CCC1=CC2Cc3nc4cc(Cl)ccc4c(N)c3[C@@H](C1)C2 [HupX],AChE inhibition potency relative to the parent structures,AChE,more than 100 times
CC1=CC2Cc3nc4cc(Cl)ccc4c(N)c3C(C1)C2 (centres unmarked) [HupY],survival of pretreated mice,[5],increased the survival
"CN1C(C(=O)Nc2ccccn2)=C(O)c2ccccc2S1(=O)=O [Piroxicam, piroxicam]",Pe ± SEM,[4],2.20 ± 0.15 10^−6 cm·s^−1
"Nc1c2c(nc3ccccc13)CCCC2 [THA, 1,2,3,4-tetrahydro-9-aminoacridine]",IC50,"ACHN cell line; Homo sapiens, ACHN, 24 h",155.2 ± 0.67 µM
same,Pe ± SEM,[3],5.30 ± 0.20 ^c 10^−6 cm·s^−1
same,IC50,"SH-SY5Y cell line; Homo sapiens, SH-SY5Y, 24 h",121 ± 1.97 µM
same,IC50,[6],120 to 168 µM
